Data taken from the supplement of paper PMC11061612.

Columns and labels:
[1] = tested on: CGTH-W-1 (Thyroid Gland Carcinoma); experiment: combination Emax (second highest fraction inhibited in the dose matrix, 72 h); higher = more inhibition; extreme values may be limits of the assay
Method in brief: (§1)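 Cell lines in DMEM/F12 or RPMI with 10% FBS were plated in 1536-well plates, held 24 hours at 37°C, 5% CO2, then given two-drug dose matrices for 72 hours (DMSO typically 0.2%). Viability was read by CellTiter-Glo 2.0 luminescence and scaled as inhibition from 0 (vehicle wells) to 1 (blank wells). Combination Emax is the second-highest inhibition in the matrix; Bliss excess is observed combination effect minus expected EA + EB − EA·EB, EA and EB being single-agent effects.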

[2] = tested on: MDA-MB-436 (Breast Carcinoma); experiment: as above
Method in brief: as §1

[3] = tested on: LU-165 (Small Cell Lung Carcinoma); experiment: as above
Method in brief: as §1

[4] = tested on: JHU-022 (Oral Cavity Carcinoma); experiment: as above
Method in brief: as §1

[5] = tested on: A2780 (Ovarian Carcinoma); experiment: as above
Method in brief: as §1

[6] = tested on: MHH-ES-1 (Ewing's Sarcoma); experiment: as above
Method in brief: as §1

[7] = tested on: EW-7 (Ewing's Sarcoma); experiment: as above
Method in brief: as §1

[8] = tested on: 769-P (Kidney Carcinoma); experiment: as above
Method in brief: as §1

[9] = tested on: KYSE-220 (Esophageal Squamous Cell Carcinoma); experiment: as above
Method in brief: as §1

[10] = tested on: HCC1395 (Breast Carcinoma); experiment: as above
Method in brief: as §1

[11] = tested on: NCI-H1703 (Squamous Cell Lung Carcinoma); experiment: as above
Method in brief: as §1

[12] = tested on: NCI-H441 (Lung Adenocarcinoma); experiment: as above
Method in brief: as §1

[13] = tested on: HCC70 (Breast Carcinoma); experiment: as above
Method in brief: as §1

[14] = tested on: NCI-H1651 (Lung Adenocarcinoma); experiment: as above
Method in brief: as §1

[15] = tested on: SK-HEP-1 (Hepatocellular Carcinoma); experiment: as above
Method in brief: as §1

[16] = tested on: SW620 (Colorectal Carcinoma); experiment: as above
Method in brief: as §1

[17] = tested on: PEO1 (Ovarian Carcinoma); experiment: Bliss excess, mean over the matrix (fraction); higher = more synergy
Method in brief: as §1

[18] = tested on: MDA-MB-436 (Breast Carcinoma); experiment: as above
Method in brief: as §1

[19] = tested on: A2780 (Ovarian Carcinoma); experiment: as above
Method in brief: as §1

[20] = tested on: SK-HEP-1 (Hepatocellular Carcinoma); experiment: as above
Method in brief: as §1
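For Bliss excess, mean over the matrix in this document: after 72 h of two-drug dosing.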

Row | Compound | combination Emax [1] | combination Emax [2] | combination Emax [3] | combination Emax [4] | combination Emax [5] | combination Emax [6] | combination Emax [7] | combination Emax [8] | combination Emax [9] | combination Emax [10] | combination Emax [11] | combination Emax [12] | combination Emax [13] | combination Emax [14] | combination Emax [15] | combination Emax [16] | Bliss excess [17] | Bliss excess [18] | Bliss excess [19] | Bliss excess [20]
1 | CN(CCO)CC[C@H](CSc1ccccc1)Nc1ccc(S(=O)(=O)NC(=O)c2ccc(N3CCC([C@@H](O)c4ccccc4-c4ccc(Cl)cc4)CC3)cc2)cc1S(=O)(=O)C(F)(F)F [AZD4320] + C=CCn1c(=O)c2cnc(Nc3ccc(N4CCN(C)CC4)cc3)nc2n1-c1cccc(C(C)(C)O)n1 [AZD1775] (first compound max 1 µM, partner max 1 µM) | 0.106 | 0.196 | 0.681 | 0.579 | 0.666 | 0.947 | 1 | 0.962 | 0.795 | 0.69 | 0.972 | 0.552 | 0.607 | 0.746 | 0.327 | 0.931 | 0.0352 | -0.0404 | 0.0284 | -0.0191
2 | N#Cc1cnc(Nc2cc(NC[C@H]3CNCCO3)c(C(F)(F)F)cn2)cn1 [SRA737] + C=CCn1c(=O)c2cnc(Nc3ccc(N4CCN(C)CC4)cc3)nc2n1-c1cccc(C(C)(C)O)n1 [AZD1775] (first compound max 10 µM, partner max 1 µM) | 0.432 | 0.274 | 0.598 | 0.528 | 0.966 | 0.667 | 0.954 | 0.9 | 0.711 | 0.753 | 0.972 | 0.446 | 0.848 | 0.713 | 0.23 | 0.587 | -0.0117 | -0.0132 | 0.097 | -0.0452
